4 compounds from patent publication US20090123391A1, “Novel Formulations” (3M INNOVATIVE PROPERTIES COMPANY, priority 2006, published 2009) can be followed below.

Data set [1] can be described thus: Dose Through Unit (DTU) dose uniformity of MDI. The note with it: for overall mean dose of medicament delivered through the actuator, combining beginning and end of use doses: MDI, Compound A 22.5 μg; for overall mean dose of medicament delivered through the actuator, combining beginning and end of use doses / overall mean dose delivered through the actuator, combined beginning and end of use: HFA 134a; for overall mean dose delivered through the actuator, combining beginning and end of use: Example 4: Compound A in combination with Compound D, HFA-134a MDI 100/100 μg/act, target output compound D 90 μg, compound A 90 μg; for overall mean dose delivered through the actuator, combined beginning and end of use: Example 5: Compound E in combination with Compound A, MDI 100/50 μg/act, target output Compound E 90 μg, Compound A 45 μg. In kind it is physicochemical. Here is the method:
The dose collection apparatus (500 ml separatory funnel with a cotton plug) was assembled and the flow rate was set to 20 L/min. Test units were stored at ambient conditions for two weeks after manufacture prior to DTU testing. For the testing at the beginning of the unit, the MDIs were primed two times with a priming actuator and four times to waste with the test actuator, shaking the units between each actuation. Two test actuations were collected in the dose collection apparatus, shaking the unit between actuations. The collection apparatus was rinsed with an appropriate volume of diluent, and the rinsate with the collected dose was analyzed by conventional HPLC analysis. For end of unit testing, the MDIs were actuated an additional 48 times to waste, shaking between each actuation. The MDIs were then actuated four times to waste through a new test actuator. Two test actuations were then collected in the dose collection apparatus, shaking the unit between actuations. The collection apparatus was rinsed with an appropriate volume of diluent, and the rinsate with the collected dose was analyzed by conventional HPLC analysis.
The reported results are the average of ten units at both the beginning and end of unit use.

The nature of data set [2]: Andersen Cascade Impactor (ACI) fine particle fraction of MDI. The data set is classed as physicochemical. To be noted: for Fine Particle Fraction expressed as a percentage of the total dose target, for Compound B, 10 μg and for the Compound A, 25 μg: Example 2: Compound A in combination with Compound B; for Fine Particle Fraction expressed as a percentage of the total dose target, for Compound B, 10 μg and for the Compound A, 25 μg / Fine Particle Fraction (FPF) expressed as a percentage of the total dose target, for Compound C, 12.5 μg and for Compound A, 25 μg: MDI; for Fine Particle Fraction expressed as a percentage of the total dose target, for Compound B, 10 μg and for the Compound A, 25 μg / Fine Particle Fraction (FPF) expressed as a percentage of the total dose target, for Compound C, 12.5 μg and for Compound A, 25 μg / Fine Particle Fraction (FPF) expressed as percentage of the total dose target of Compound E, 100 μg and for Compound A, 50 μg: HFA 134a; for Fine Particle Fraction (FPF) expressed as a percentage of the total dose target, for Compound C, 12.5 μg and for Compound A, 25 μg: Example 3: Compound A in combination with Compound C, 25/12.5 μg/act; for Fine Particle Fraction (FPF) expressed as a percentage of the total dose target, for Compound D, 100 μg, and for Compound A, 100 μg: Example 4: Compound A in combination with Compound D, HFA-134a MDI 100/100 μg/act; for Fine Particle Fraction (FPF) expressed as percentage of the total dose target of Compound E, 100 μg and for Compound A, 50 μg: Example 5: Compound E in combination with Compound A, MDI 100/50 μg/act. From the text: The fine particle fraction of the aerosol formulations according to the invention may be measured by conventional techniques, for example, by cascade impaction by measuring particle size distribution. The Cascade Impactor is designed to mimic the human buccal cavity and bronchial tract and the cascade Impactor test is designed to reveal the amount of deposition of inhaled drug substance at various stages thereof. As used herein reference to the “cascade impaction” assay means determination of the deposition of the emitted dose in pressurised inhalations as defined in European Pharmacopoeia, Section 2.9.18, 5th edition “Preparations for Inhalation, Apparatus D”. Such techniques enable the “respirable fraction” of the aerosol formulations to be calculated. One method used to calculate the “respirable fraction” is by reference to “fine particle fraction” which is the amount of active ingredient collected in stages 3 to 5 (aerodynamic diameter 1.1-4.7 μm) which represents the lung, per actuation expressed as a percentage of the total amount of active ingredient delivered per actuation using the cascade impactor method described above. Earlier stages represent the aerosol device itself, the throat and the upper reaches of the bronchial tract, and the later stages representing potential systemic absorption through the wall of the lung which may cause serious side effects.
The Andersen Cascade Impactor Mark II (ACI) was assembled and the flow rate was set to 28.3 L/min. The units were primed four times with the test actuator prior to dose collection, shaking between actuations. Between 5 and 20 actuations were collected in the ACI assembly. The ACI was disassembled and the components were rinsed with an appropriate amount of solvent that ensures dissolution of all formulation ingredients. The rinsate was collected for analysis by conventional HPLC analysis.

Setting [3] is: 0.1% w/w of polymer of formula (II), 12 Week at 40° C./75% relative humidity.
Where [4] appears, read: 0.1% w/w of polymer of formula (II), Initial.

As to `O=CNc1cc([C@@H](O)CNCCc2ccc(NC[C@H](O)c3ccccc3)cc2)ccc1O` [Compound B], the “overall mean dose of medicament delivered through the actuator, combining beginning and end of use doses” value in data set [1] (Example 2: Compound A in combination with Compound B, 25/10 μg/act, 0.1% w/w of polymer of formula (II), 12 Week at 40° C./75% relative humidity, target output Compound B 8.5 μg) is reported as 99%; in data set [1] (Example 2: Compound A in combination with Compound B, 25/10 μg/act, 0.1% w/w of polymer of formula (II), Initial, target output Compound B 8.5 μg), 98%; in data set [1] (Example 2: Compound A in combination with Compound B, 25/10 μg/act, surfactant-free, 12 Week at 40° C./75% relative humidity, target output Compound B 8.5 μg), 73%; in data set [1] (Example 2: Compound A in combination with Compound B, 25/10 μg/act, surfactant-free, Initial, target output Compound B 8.5 μg) it was 71%. Also, the “Fine Particle Fraction expressed as a percentage of the total dose target, for Compound B, 10 μg and for the Compound A, 25 μg” value is 26% in data set [2] (setting [3]); 25% in data set [2] (setting [4]); 21% in data set [2] (surfactant-free, 12 Week at 40° C./75% relative humidity); 20% in data set [2] (surfactant-free, Initial).
Consider `NS(=O)(=O)c1cccc(CCCCOCCCCCCNC[C@H](O)c2ccc(O)c(CO)c2)c1` [Compound C, 3-(4-{[6-({(2R)-2-hydroxy-2-[4-hydroxy-3-(hydroxymethyl)-phenyl]ethyl}amino)hexyl]oxy}butyl)benzenesulfonamide], for which the “overall mean dose of medicament delivered through the actuator, combining beginning and end of use doses” value in data set [1] (Example 3: Compound A in combination with Compound C, 25/12.5 μg/act, 0.1% w/w polymer of formula (II), 12 Week at 40° C./75 relative humidity, target output Compound C 11.3 μg) is given as 112%; in data set [1] (Example 3: Compound A in combination with Compound C, 25/12.5 μg/act, 0.1% w/w polymer of formula (II), Initial, target output Compound C 11.3 μg), 96%; in data set [1] (Example 3: Compound A in combination with Compound C, 25/12.5 μg/act, surfactant-free, 12 Week at 40° C./75 relative humidity, target output Compound C 11.3 μg), 90%; in data set [1] (Example 3: Compound A in combination with Compound C, 25/12.5 μg/act, surfactant-free, Initial, target output Compound C 11.3 μg), 80%. Besides, the “Fine Particle Fraction (FPF) expressed as a percentage of the total dose target, for Compound C, 12.5 μg and for Compound A, 25 μg” value in data set [2] (0.1% w/w polymer of formula (II), 12 Week 40° C./75 relative humidity) came out at 25%; in data set [2] (0.1% w/w polymer of formula (II), Initial), 28%; in data set [2] (surfactant-free, 12 Week 40° C./75 relative humidity), 21%; in data set [2] (surfactant-free, Initial), 14%.
`OCc1cc([C@@H](O)CNCCCCCCOCCOCc2c(Cl)cccc2Cl)ccc1O` [Compound D, 4-{(1R)-2-[(6-{2-[(2,6-dichlorobenzyl)oxy]ethoxy}hexyl)amino]-1-hydroxyethyl}-2-(hydroxymethyl) phenol]: the “overall mean dose delivered through the actuator, combining beginning and end of use” value is 104% in data set [1] (setting [3]) and 101% in data set [1] (setting [4]). Also, the “Fine Particle Fraction (FPF) expressed as a percentage of the total dose target, for Compound D, 100 μg, and for Compound A, 100 μg” value in data set [2] (setting [3]) came to 27%; in data set [2] (setting [4]), 32%.
`COc1ccc(Nc2ccc(CCNCC(O)c3ccc(O)c4[nH]c(=O)ccc34)cc2)cc1-c1ccccc1` (stereo not drawn) [Compound E, N-{2-[4-(3-phenyl-4-methoxyphenyl)aminophenyl]ethyl}-2-hydroxy-2-(8-hydroxy-2(1H)-quinolinon-5-yl)ethylamine]: the “overall mean dose delivered through the actuator, combined beginning and end of use” value in data set [1] (setting [3]) was 106%; in data set [1] (setting [4]), 104%. Moreover, the “Fine Particle Fraction (FPF) expressed as percentage of the total dose target of Compound E, 100 μg and for Compound A, 50 μg” value is 28% in data set [2] (setting [3]) and 26% in data set [2] (setting [4]).
